Assay [1] in a line: Inhibition of 20s constitutive proteasome beta1 caspase-like activity in human erythrocytes using […] as substrate preincubated for 10 mins followed by substrate addition and measured after 6 hrs by fluorescence assay.
The nature of assay [2]: Inhibition of 20s constitutive proteasome beta2 trypsin-like activity in human erythrocytes using Boc-Leu-Arg-Arg-MCA as substrate preincubated for 10 mins followed by substrate addition and measured after 6 hrs by fluorescence assay.

As a reminder, the IC50 is the midpoint of a concentration-inhibition curve. High values mean weaker potency, low ones greater potency.

Turning to `C1=C\CCc2cc3c[n+](c2)CCCC/C=C\CC[C@@H]2CN(CCCC/1)CC[C@@H]32`, the half-maximal inhibitory concentration (IC50) in assay [1] is 4700 nM.
As to `C1=C2CN3CCCC/C=C\CC[C@@H]4CN(CCCC/C=C\CC[C@H]1C3)CC[C@@H]24`, the 50% inhibitory concentration (IC50) stood at 480 nM in assay [1] and 6.3 µM in assay [2].

(Values after BindingDB's records for doi:10.1016/j.bmcl.2018.11.028 (Kumamoto University, 2019).)
